The text below walks through data of patent US20180249725A1, “ANTIMICROBIAL COMPOSITIONS” (priority 2015, published 2018).

Marks after values point to notes of the source that are not given here.

For one experiment, the system named is Listeria monocytogenes. Nature of the experiment: Listeria monocytogenes growth in inoculated raw minced beef under modified atmosphere. Type of experiment: cell-based. The following applies: for Measured effect on Listeria monocytogenes growth: [(log(CFU/mL) in meat treated with plant extracts) − (log(CFU/mL) control meat (without treatment))]: rosemary/hesperidin series added at 1.18% to minced beef, 8° C., 70% O2 and 30% CO2; for Expected effect on Listeria monocytogenes growth (difference of log(CFU/mL) to control meat): rosemary/hesperidin series, calculated from effects of the single extracts. On the procedure:
In the course of the work leading to the present method and composition, mixtures of rosemary extract and of hesperidin or of Punica extract, in a number of varying concentration ratios were tested for antilisterial effectiveness using the classical microbiological methods. Bacterial enumeration in all here studied samples was performed on the Aloa medium according to the standardized method (NF EN ISO 11-290). The growth of Listeria monocytogenes was evaluated in meat without any antilisterial agent and without any plant extract (control). The data of listerial growth in a control meat are represented in FIG. 2. […] Following the meat manufacture, a batch of meat was sampled straight after the mincing process and transported in refrigerated conditions to the laboratory. […] Any further supplementation to the meat was conducted in such a laboratory. […] Plant extracts were in powder form and were added as such to the meat. To keep them as dry powders, plant extracts were supplemented with maltodextrin prior to drying process. […] Control meat pieces, without extract treatment, followed the same procedure. […] Packaged meat was stored in the dark for a stated amount of time. A series of experiments involving rosemary and hesperidin extracts, rosemary and Punica extracts, typical antilisterial compounds (Sodium lactate or Sodium acetate) and untreated control were conducted. Mixtures or alone extracts of rosemary and of hesperidin were added at 1.18% to the meat. […] Such analyses were conducted on the 0th, 6th and 9th day of storage. The growth of Listeria monocytogenes was evaluated in meat in refrigerated conditions for each extract or compound and for their combinations. […] Logarithmic values of Listerial growth (log CFU/mL) were calculated for each experiment and treatment. Differences of logarithmic values of Listerial growth (log CFU/mL) between the meat treated with plant extracts and the untreated control were calculated to yield a final result. The more negative value was obtained, the higher was the antilisterial effect of the extract or of the combination of extracts. […] (Guide pour la validation de méthodes d'essais microbiologiques et l'évaluation de leur incertitude de mesure dans les domaines de la microbiologie […]'environnement), Schweizerische Eidgenossenschaft, Confédération suisse, Département […]'économie, de la formation et de la recherche DEFR, Document No. 328, April 2013, Rev. 03).

The conditions of experiment [1]: stored in cold; applied at 300 ppm; cited from earlier work.
The test system of another experiment is Listeria. The conditions noted are these: pure form; cited from earlier work.

Turning to `COc1ccc([C@@H]2CC(=O)c3c(O)cc(O[C@@H]4O[C@H](CO[C@@H]5O[C@@H](C)[C@H](O)[C@@H](O)[C@H]5O)[C@@H](O)[C@H](O)[C@H]4O)cc3O2)cc1O` [Hesperidin], in the experiment with Listeria monocytogenes (surface response methodology (FIG. 4), response difference to control <0.5 log(CFU/mL) as printed, total added to meat not above 1.18%), the “Extract proportion in combination that provide antilisterial response in meat” value is 0.5-48.0%.

For `O=c1oc2c(O)c(O)cc3c(=O)oc4c(O)c(O)cc1c4c23` [ellagic acid], in experiment [1], the “Antimicrobial effect on raw beef MAP meat” value is given as “no antimicrobial effect”.

Turning to `COc1ccc([C@@H]2CC(=O)c3c(O)cc(O[C@@H]4O[C@H](CO)[C@@H](O)[C@H](O)[C@H]4O[C@@H]4O[C@@H](C)[C@H](O)[C@@H](O)[C@H]4O)cc3O2)cc1O` [neohesperidin], the “Effect on Listerial growth in vitro” value in the experiment on Listeria is reported as “no effect”.

On to hesperidin, for which the “Measured effect on Listeria monocytogenes growth: [(log(CFU/mL) in meat treated with plant extracts) − (log(CFU/mL) control meat (without treatment))]” value in the experiment with Listeria monocytogenes (after 6 days of growth) was −0.09 log(CFU/mL); in the experiment on Listeria monocytogenes (after 9 days of growth) it was −0.64 log(CFU/mL).

In the case of hesperidin [0.5H], in the experiment on Listeria monocytogenes (after 6 days of growth), the “Measured effect on Listeria monocytogenes growth: [(log(CFU/mL) in meat treated with plant extracts) − (log(CFU/mL) control meat (without treatment))]” value was −0.37* log(CFU/mL) and the “Expected effect on Listeria monocytogenes growth (difference of log(CFU/mL) to control meat)” value is recorded as −0.045 log(CFU/mL). Moreover, in the experiment on Listeria monocytogenes (after 9 days of growth), the “Measured effect on Listeria monocytogenes growth: [(log(CFU/mL) in meat treated with plant extracts) − (log(CFU/mL) control meat (without treatment))]” value is recorded as −0.71* log(CFU/mL) and the “Expected effect on Listeria monocytogenes growth (difference of log(CFU/mL) to control meat)” value is recorded as −0.32 log(CFU/mL).
